According to US20060194259A1, “Method for isolating an allosteric effector of a receptor” (priority 2002, published 2006):

What was measured:
receptor EGFP-NK2R [1] = target: T1, receptor EGFP-NK2R (Homo sapiens, UniProt P21452); assay: Reversion of the binding of NKA-Bo to EGFP-NK2R by fluorescence energy transfer; settings: read-out: % bond reversion (50 μM)
T1 sequence (P21452 1-398): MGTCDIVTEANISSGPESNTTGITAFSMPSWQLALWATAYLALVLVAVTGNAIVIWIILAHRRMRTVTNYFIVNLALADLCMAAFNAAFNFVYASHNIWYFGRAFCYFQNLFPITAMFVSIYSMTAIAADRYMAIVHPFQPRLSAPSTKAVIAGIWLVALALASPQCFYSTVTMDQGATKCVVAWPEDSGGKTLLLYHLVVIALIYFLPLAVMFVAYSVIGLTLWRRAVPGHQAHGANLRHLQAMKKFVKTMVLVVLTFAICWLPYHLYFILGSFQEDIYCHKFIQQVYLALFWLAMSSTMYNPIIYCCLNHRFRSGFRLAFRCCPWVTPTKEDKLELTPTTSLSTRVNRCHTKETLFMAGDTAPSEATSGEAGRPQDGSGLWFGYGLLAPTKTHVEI
Excerpt: (§1) The amplitude of each relaxation is then given by the adjustment of the experimental traces.

receptor EGFP-NK2R [2] = target: T1, receptor EGFP-NK2R; assay: cAMP production caused by NKA in HEK 293 cells expressing EGFP-NK2R; assay type: cell-based
Method: (§2) 30 mm 6-well cell-culture dishes are treated with collagen then seeded with 50,000 cells expressing the receptor EGFP-NK2R. […] The quantity of cAMP produced (expressed in pmoles/well) is determined according to a radioimmunological process described in Gicquiaux et al. (2002).

receptor EGFP-NK2R [3] = target: T1, receptor EGFP-NK2R; assay: Calcium response caused by NKA/NKA-Bo in HEK 293 cells expressing EGFP-NK2R (indo-1); assay type: cell-based; settings: for time necessary to return to 50% of the maximum calcium response: 5 nM NKA, 91 seconds in the absence of 805
Method: The calcium responses caused by the agonist NKA-Bo on cells expressing the receptor EGFP-NK2R are recorded after charging the cells with the calcium-sensitive fluorescent probe: indo-1, according to the protocol described in Vollmer et al. (1999). The cells are put into suspension at a rate of 500,000 cells/ml in Hepes buffer and arranged in a spectrofluorimeter cuvette. The excitation wavelength is fixed at 338 nm and the emission is recorded at 400 and 470 nm. The responses traced are the ratios of the signals 400/470.

[4] = target: T2, wild-type human receptor NK1 (Homo sapiens, UniProt P25103); assay: Calcium response caused by substance P in HEK 293 cells expressing NK1 receptor; assay type: cell-based; settings: 805 20 μM; substance P 0.1 or 10 nM
T2 construct: expressed in transfected cells; host or cells: HEK 293
T2 sequence (P25103 whole entry): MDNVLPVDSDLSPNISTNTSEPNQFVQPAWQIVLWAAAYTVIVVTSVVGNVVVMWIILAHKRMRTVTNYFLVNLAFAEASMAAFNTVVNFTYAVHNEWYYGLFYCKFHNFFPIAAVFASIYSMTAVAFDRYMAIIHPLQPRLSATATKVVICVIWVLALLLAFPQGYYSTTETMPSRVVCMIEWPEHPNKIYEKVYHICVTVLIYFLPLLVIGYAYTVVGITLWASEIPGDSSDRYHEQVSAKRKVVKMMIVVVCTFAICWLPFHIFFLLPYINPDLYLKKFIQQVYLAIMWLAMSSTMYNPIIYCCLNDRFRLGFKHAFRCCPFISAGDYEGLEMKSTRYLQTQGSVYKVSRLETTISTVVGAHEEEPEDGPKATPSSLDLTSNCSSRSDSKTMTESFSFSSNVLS
Method: In FIGS. 12A and 12B, a suspension (1×10^6 cells/ml) of HEK 293 cells expressing the wild-type human NK1 receptor, and charged with indo-1 (3 μM) is stimulated by 0.1 nM (FIG. 12A) or 10 nM (FIG. 12B) of substance P(SP) in the presence (black circles) and in the absence (white circles) of 805 molecules (20 μM).
(§3) The cells are put into suspension at a rate of 1,000,000 cells/ml in Hepes buffer (op. cit.) and arranged in a spectrofluorimeter cuvette. The excitation wavelength is fixed at 338 nm and the emission is recorded at 400 nm. The responses traced are the signals recorded at 400 nm.

[5] = target: T3, wild-type human receptor NK2 (Homo sapiens, UniProt P21452); assay: Calcium response caused by neurokinin A in HEK 293 cells expressing NK2 receptor; assay type: cell-based; settings: 805 20 μM; neurokinin A 10 or 100 nM
T3 construct: expressed in transfected cells; host or cells: HEK 293
T3 sequence (P21452 1-398): T1 sequence (P21452 1-398)
Method: as §3

receptor EGFP-NK2R [6] = target: T4, receptor EGFP-NK2R (UniProt P16610); assay: cAMP production caused by NKA in HEK 293 cells expressing EGFP-NK2R; assay type: cell-based; set-up: 805 at 10 or 50 μM; NKA alone; fused on or other part: EGFP fused to the receptor; settings: read-out: inhibition constant KI of the maximum response of cAMP induced by the NKA; FIG. 9C
T4 sequence (P16610 1-390): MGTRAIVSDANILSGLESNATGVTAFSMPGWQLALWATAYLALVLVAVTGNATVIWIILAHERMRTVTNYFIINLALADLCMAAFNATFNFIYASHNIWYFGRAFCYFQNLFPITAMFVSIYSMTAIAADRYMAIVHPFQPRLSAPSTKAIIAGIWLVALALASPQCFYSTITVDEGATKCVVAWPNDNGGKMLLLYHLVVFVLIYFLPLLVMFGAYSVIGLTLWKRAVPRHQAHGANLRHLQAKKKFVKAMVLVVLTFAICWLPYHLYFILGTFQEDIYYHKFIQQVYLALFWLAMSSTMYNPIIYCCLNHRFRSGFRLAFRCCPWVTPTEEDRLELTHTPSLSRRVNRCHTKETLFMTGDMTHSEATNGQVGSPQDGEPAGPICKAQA
Method: as §2

receptor EGFP-NK2R [7] = target: T4, receptor EGFP-NK2R; assay: Reversion of the binding of NKA-Bo to EGFP-NK2R by fluorescence energy transfer; set-up: % al (max): maximum value observed for the increase in amplitude of the rapid dissociation rate; ns = n; other: 20 nM of NK; % al (at 10 μM); other: compou; fused on or other part: EGFP fused to the receptor as FRET donor
Excerpt: as §1

receptor EGFP-NK2R [8] = target: T4, receptor EGFP-NK2R; assay: Dissociation of NKA4-10 TR7 from EGFP-NK2R by fluorescence energy transfer; assay type: binding; set-up: % al (max): maximum value observed for the increase in amplitude of the rapid dissociation rate; ns = n; other: 20 nM of NK; % al (at 10 μM); other: compou; fused on or other part: EGFP fused to the receptor as FRET donor
Method: The x-axis represents time in seconds and the y-axis represents fluorescence.
In the presence of 10 μM of 805, an acceleration of the dissociation is observed characterized by a modification of the amplitudes of the rapid (88%) and slow (12%) dissociation stages.

N#CCN(Cc1ccccc1)Cc1ccc2ccccc2c1 [compound 805, [benzyl(2-naphthylmethyl)amino]acetonitrile]
inhibition at 50 µM (receptor EGFP-NK2R [1]): 9%
Rmax, maximum cAMP response to NKA relative to control (receptor EGFP-NK2R [2]; [805]=10 μM): 0.7
Rmax, maximum cAMP response to NKA relative to control (receptor EGFP-NK2R [2]; [805]=50 μM): 0.3
time necessary to return to 50% of the maximum calcium response (receptor EGFP-NK2R [3]; 805 10 μM): 105 s
effect on the calcium response caused by NKA (receptor EGFP-NK2R [3]; 805 50 μM with 1, 5 and 1000 nM NKA): increases the duration of the calcium response
time necessary to return to 50% of the maximum calcium response (receptor EGFP-NK2R [3]; 805 50 μM): 115 s
effect on the calcium response caused by substance P [4]: increases the amplitude of the response
effect on the calcium response caused by neurokinin A [5]: increases the amplitude of the response
Ki (receptor EGFP-NK2R [6]): ~6 µM
% bond reversion (at 10 μM) (receptor EGFP-NK2R [7]; compound 10 μM): 1 (10 μM) %
IC50 (receptor EGFP-NK2R [7]; read-out: IC50 (μM): concentration of compound for which a 50% reduction is observed in the binding of NKA-Bo, 20 nM of NKA-Bo, EGFP-NK2R receptor): > 500 µM
amplitude of the slow dissociation of NKA4-10 TR7 (receptor EGFP-NK2R [8]; 10 μM of 805, 10° C., 42% without 805): 12%
amplitude of the rapid dissociation of NKA4-10 TR7 (receptor EGFP-NK2R [8]; 805 at 100 μM, approximately 40% in the absence of 805): up to 90%
EC50 (receptor EGFP-NK2R [8]; read-out: concentration which causes a 50% increase in the amplitude of the rapid dissociation of NKA4-10 TR7 (apparent affinity), 10° C.): ~20 µM
